From PubChem BioAssay (NCI) come the findings set out here.

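Values below derive from 48-hour exposures of cells grown in 96-well plates, with endpoints linearly interpolated between the two concentrations bracketing the appropriate inhibition level. GI50: concentration for 50% inhibition of growth. Definition used: TGI = concentration required for complete inhibition of growth.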

Among the test systems are OVCAR-4 ovarian; M14 melanoma; HOP-62 NSCLC; OVCAR-3 ovarian; A498 renal; NCI-H522 lung; SF-295 CNS; TK-10 renal; HCT-116 colon; K-562 leukemia.
Test in all cases: NCI-60 cell line screen, 48 h

Turning to `Cn1c(=O)ccc2c(=O)c3ccccc3oc21`, the TGI in the experiment on OVCAR-4 ovarian, in the experiment on M14 melanoma, in the experiment with HOP-62 NSCLC, in the experiment on OVCAR-3 ovarian, in the experiment on A498 renal and in the experiment on NCI-H522 lung was greater than 100 µM throughout. Also, the TGI in the experiment with SF-295 CNS, in the experiment with TK-10 renal, with HCT-116 colon and with K-562 leukemia was greater than 100 µM throughout.
Take `CCOC(=O)/C(=C\NC(C)(C)CO)c1nc2ccccc2[nH]1`: the TGI in the experiment with OVCAR-4 ovarian, in the experiment on M14 melanoma, with HOP-62 NSCLC, with OVCAR-3 ovarian, in the experiment with A498 renal and in the experiment with NCI-H522 lung was greater than 100 µM in each case. The TGI with SF-295 CNS, in the experiment on TK-10 renal, in the experiment with HCT-116 colon and with K-562 leukemia was greater than 100 µM throughout.
In the case of `C=C1c2nc3ccccc3n2C=C(c2ccc(Cl)cc2)N1c1ccc(OCCN2CCCCC2)cc1`, the TGI is greater than 45 µM in the experiment with OVCAR-4 ovarian; greater than 100 µM with M14 melanoma; greater than 100 µM in the experiment on HOP-62 NSCLC; greater than 45 µM with OVCAR-3 ovarian; greater than 100 µM in the experiment with A498 renal; 45 µM in the experiment with NCI-H522 lung. In addition, the TGI is greater than 45 µM in the experiment on SF-295 CNS, greater than 100 µM in the experiment on TK-10 renal, greater than 45 µM with HCT-116 colon and greater than 100 µM in the experiment on K-562 leukemia. In addition, the GI50 in the experiment with M14 melanoma was greater than 100 µM; in the experiment on HOP-62 NSCLC, greater than 100 µM; with A498 renal it was greater than 100 µM; in the experiment with TK-10 renal, greater than 100 µM; in the experiment on K-562 leukemia it was 1.09 µM.
As for `Cn1cc(-c2nnc(-c3ccc(Cl)cc3)[nH]c2=O)c2ccccc21`, the TGI with OVCAR-4 ovarian was greater than 100 µM; in the experiment with M14 melanoma it was greater than 100 µM; in the experiment on HOP-62 NSCLC, greater than 75.8 µM; in the experiment on OVCAR-3 ovarian it was 14.9 µM; in the experiment on A498 renal, greater than 61 µM; in the experiment on NCI-H522 lung, 6.16 µM. Further, the TGI with SF-295 CNS is greater than 28.3 µM; in the experiment with TK-10 renal, 42.7 µM; in the experiment on HCT-116 colon, greater than 66.3 µM; in the experiment with K-562 leukemia, greater than 100 µM.
In the case of `Cc1cc2c(cc1Cl)SC(c1ccccc1O)NS2(=O)=O` (stereo not given), the TGI in the experiment with OVCAR-4 ovarian is greater than 100 µM; with M14 melanoma, greater than 100 µM; in the experiment on HOP-62 NSCLC, greater than 100 µM; with OVCAR-3 ovarian, 78.4 µM; in the experiment with A498 renal, greater than 100 µM; with NCI-H522 lung, greater than 100 µM. Further, the TGI in the experiment on SF-295 CNS, in the experiment with TK-10 renal, with HCT-116 colon and in the experiment on K-562 leukemia was greater than 100 µM throughout.
Take `O=c1[nH]c2cc([N+](=O)[O-])c(N/N=C/c3ccc(Cl)cc3Cl)c([N+](=O)[O-])c2[nH]1`: the TGI was 94.6 µM with OVCAR-4 ovarian; greater than 100 µM in the experiment with M14 melanoma; greater than 100 µM in the experiment on HOP-62 NSCLC; 35.3 µM in the experiment with OVCAR-3 ovarian; 48.7 µM in the experiment with A498 renal; 94 µM in the experiment on NCI-H522 lung. Further, the TGI in the experiment with SF-295 CNS, with TK-10 renal, in the experiment with HCT-116 colon and in the experiment on K-562 leukemia was greater than 100 µM throughout.
